Source: patent US20090298786A1, “METHODS OF TREATING VIRAL INFECTIONS WITH ANTHRACYCLINE ANTIBIOTICS” (priority 2007, published 2009)
Where two headings read alike, the source gives them in different places.

Tests used:
[1] = target: T1, HCV helicase (helicase domain of NS3 protein) (UniProt P27958); assay: Fluorometric (FRET) antihelicase activity assay; assay type: biochemical, hepatitis C virus (HCV); conditions: concentration inhibiting 50% of helicase activity; 10 nM enzyme pre-incubated 15 min with derivative, unwinding at 30° C. for 60 min; read-out: IC50
T1 construct: The helicase domain of NS3 protein was expressed in a baculovirus system in HF insect cell line; fused on or other part: Histidine tag, inferred from the Talon cobalt column purification ('histidine repetitions')
T1 sequence (P27958 1027-1657): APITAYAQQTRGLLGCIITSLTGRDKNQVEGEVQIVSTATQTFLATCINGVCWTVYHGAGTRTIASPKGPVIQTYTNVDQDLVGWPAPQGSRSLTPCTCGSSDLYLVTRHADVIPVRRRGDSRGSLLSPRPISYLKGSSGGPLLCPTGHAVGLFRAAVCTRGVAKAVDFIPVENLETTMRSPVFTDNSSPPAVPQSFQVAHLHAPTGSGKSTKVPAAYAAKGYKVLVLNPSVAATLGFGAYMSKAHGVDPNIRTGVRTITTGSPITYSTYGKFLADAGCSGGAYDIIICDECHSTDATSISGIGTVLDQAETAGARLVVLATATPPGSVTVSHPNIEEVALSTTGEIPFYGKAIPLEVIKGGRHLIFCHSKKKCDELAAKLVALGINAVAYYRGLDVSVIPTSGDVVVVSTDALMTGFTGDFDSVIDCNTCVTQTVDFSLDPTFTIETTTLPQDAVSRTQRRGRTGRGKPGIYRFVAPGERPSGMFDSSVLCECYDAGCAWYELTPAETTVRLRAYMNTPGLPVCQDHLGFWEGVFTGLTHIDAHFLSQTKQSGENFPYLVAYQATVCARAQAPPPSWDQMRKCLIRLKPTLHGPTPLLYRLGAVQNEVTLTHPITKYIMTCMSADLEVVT
From the text: A reaction takes place on a 96- or 384-well microtitration plate and a course of the reaction is observed in real time.
The helicase domain of NS3 protein was expressed in a baculovirus system in HF insect cell line.
In this assay, FAM fluorescence is quenched by fluorescence energy transfer (FRET) to the BHQ molecule, while unwinding of double-stranded DNA structure leads to decrease of FRET phenomenon and increase of FAM fluorescence signal. The assay allows for examining a large number of samples, i.e., different helicase inhibitors at various concentrations and with many repetitions, in standardized conditions. The reaction is conducted in a microtitration plate. The reaction process is observed in real time.
The enzyme (10 nM) was pre-incubated with the tested derivatives dissolved in DMSO (0.005 to 20 μM concentration) without ATP for 15 min at room temperature. The reaction of DNA unwinding was started by addition of ATP and was carried out at 30° C. for 60 min in a Synergy HTi (Biotek) fluorometer. […] Fluorescence was measured every 2 mins.
The enzyme activity was calculated as the initial reaction velocity from the linear part of reaction curve (fluorescence growth as a function of time) using a linear regression method. Inhibition was calculated as comparison of activity of the helicase incubated with inhibitor to activity of the helicase incubated without inhibitor, but with a proper concentration of DMSO, expressed in percent.

[2] = system: subgenomic HCV genotype 1 (con 1) replicon; assay: Antiviral activity, subgenomic HCV replicon luciferase test in Huh-7 cells; assay type: cell-based, hepatitis C virus
Method: Studies on inhibition of HCV replication, using human liver cancer cell line (Huh7) carrying a subgenomic HCV replicon of genotype 1 (con1) with a reporter/selection fusion protein luc-ubi-neo, were also carried out.
In order to examine antiviral activity and to determine therapeutic index of exemplary anthracycline antibiotics, subgenomic replicon of hepatitis C virus was used, which is a modified genome of HCV lacking structural genes. The replicon was a non-infective form of the virus, and therefore is safe to work with and makes it easier for high-throughput screening of potential inhibitors of its replication.
Additional simplification was the use of reporter protein—luciferase, whose activity (i.e., luminescence generated by it after addition of substrate) was proportional to the amount of the protein expressed, which allowed determination of HCV RNA replication level and its inhibition by virus replication inhibitors.
The human hepatoma cell line Huh-7 and the plasmid pFK-luc-ubi-neo/NS3-3′/Con1/5.1 carrying the subgenomic HCV genotype 1 (con 1) replicon with the luc-ubi-neo reporter/selective fusion protein (Vrolijk J. M. et al., J. Virol. Methods 110: 201-209, 2003), used in the experiments, were provided by Dr. Ralf Bartenschlager (Department of Molecular Virology, University of Heidelberg, Heidelberg). Huh-7 clones carrying persistently-replicating subgenomic HCV replicons were obtained using the following modification of the protocol described by Lohman V. et al. (J. Virol. 75:1437-1449, 2001).
(§1) Huh-7 cells were grown in minimal essential medium (Dulbecco's Modified Minimal Essential Medium, DMEM; Invitrogen) with high glucose concentration (4.5 g/L) supplemented with 2 mM L-glutamine and 1 μM non-essential amino acids, such as: glycine, L-alanine, L-asparagine, L-aspartic acid, L-glutamic acid, L-proline and L-serine, and also with 100 U/mL penicilin, 100 μg/mL streptomycin, and 10% fetal bovine serum (FBS, Sigma). In cultures of cells bearing the subgenomic HCV replicon 250 μg/mL of aminoglycoside antibiotics G418 (Geneticin; Invitrogen) was added to the medium. Cells were grown at 37° C. (5% CO2) and were passaged twice per week, diluted 7 to 10 times, according to the protocol described in Vrolijk J. M. et al., J. Virol. Methods 110:201-209, 2003.
(§2) The Huh-7 cells carrying replicons were cultivated with the following concentrations of anthracycline antibiotics: 5 to 200 nM for 4 days to determine their influence on HCV RNA replication and 5 to 5000 nM for 3 days to determine cytotoxicity. The medium with 1% DMSO was used as a control.
Conditions of the antiviral activity test of antracycline antibiotics were based on the protocol described by Paeshuyse J. et al. (Biochem. Biophys. Res. Commun. 348: 139-144, 2006). A logarithmic culture of HCV replicon-carrying cells was diluted in complete DMEM medium supplemented with 250 μg/ml G418 to the concentration of 5-7×10^3 cells per mL and aliquoted into 96-well white microtitration plate with optical bottom (Nunc) (100 μL per well). After 24 h at 37° C. the medium was removed and dilution of inhibitors in the range of 5 to 200 nM was added in 100 μL of fresh DMEM medium without G418. Huh-7 cells with 1% DMSO were used as a control. After 4 days at 37° C., the medium was removed and 40 μL of mixture of Glo Lysis buffer and Bright-Glo luciferase assay system (Promega) was added to each well. After 2 mins of incubation luminescence was measured with a Synergy HTi (Biotek) device. The experiment was repeated at least three times with three repetitions for each inhibitor concentration.

[3] = system: Huh-7 cells carrying replicons; assay: Cytotoxicity (MTT) in HCV replicon-carrying Huh-7 cells; conditions: Huh-7 replicon cells, 3 days, MTT, cell growth inhibited by 50%
Method: as §1, §2
(§3) When determining cytotoxicity, as in the antiviral test, logarithmic culture of HCV replicon-carrying cells was diluted in complete DMEM medium supplemented with 250 μg/mL G418 to the concentration of 5−7×10^3 cells per mL and aliquoted into 96-well mictotitration cell culture plate (100 μL per well). After 24 h at 37° C. medium was removed and inhibitors were added at concentrations of 5 to 5000 nM in 100 μL of fresh DMEM medium without G418. After 3 days at 37° C., the medium was removed and 100 μL of fresh DMEM medium with 0.5 mg/mL of MTT (tetrazolium bromide, Sigma) was added to each well. After 3 to 4 hours of incubation at 37° C., the medium with MTT was removed and 100 μL of 0.04 N HCl solution in absolute isopropanol was added to solubilize the precipitated dye. Dye absorbance was measured at 570 nm, while absorbance of the background was measured at 650 nm using Synergy HTi (Biotek). The experiment was repeated at least 3 times with 3 repetitions for each inhibitor concentration.

helicase = conditions: Borowski P. et al., Antiviral Res. 55, 397-412, 2002; read-out: IC50 (antihelicase activity); cited from earlier work
[4] = Cytotoxicity (MTT) in HCV replicon-carrying Huh-7 cells; conditions: human, Huh-7 cells carrying subgenomic HCV replicon
Method: as §1, §2, §3

[5] = Huh-7 replicon cells, 4 days, luminescence reduced by 50%, read-out: EC50
[6] = Hepatitis C virus, Huh-7, 96 h, Huh-7 replicon cells, 4 days, luminescence reduced by 50%

Structure (SMILES) | IC50 [1] | EC50 [2, 5] | CC50 [3] | IC50 (helicase) | also measured
COc1cccc2c1C(=O)c1c(O)c3c(c(O)c1C2=O)CC(O)(C(=O)CO)CC3OC1CC(N=C(C)N2CCc3ccccc32)C(O)C(C)O1 (stereo not drawn) [Derivative 133] | 0.38 µM | 0.138 µM | 1.57 µM |  | 
COc1cccc2c1C(=O)c1c(O)c3c(c(O)c1C2=O)CC(O)(C(=O)CO)CC3OC1CC(N=C(C)N2CCOCC2)C(O)C(C)O1 (stereo not drawn) [Derivative 125] | 0.29 µM | 0.114 µM | 0.909 µM |  | 
O=C1c2c(O)ccc(O)c2C(=O)c2c(NCCNCCO)ccc(NCCNCCO)c21 [mitoxantrone] |  |  |  | 6.7 µM | 
COc1cccc2c1C(=O)c1c(O)c3c(c(O)c1C2=O)CC(O)(C(=O)CO)CC3OC1CC(N=C(C)N2CCOCC2)C(O)C(C)O1 (stereo not drawn) [Derivative 54] | 0.51 µM | 0.129 µM | 4.28 µM |  | 
COc1cccc2c1C(=O)c1c(O)c3c(c(O)c1C2=O)CC(O)(C(C)=O)CC3OC1CC(N=C(C)N2CCN(C)CC2)C(O)C(C)O1 (stereo not drawn) [Derivative 94] | 0.08 ± 0.02 µM |  |  |  | EC50 [2, 6]: 0.0569 µM; CC50 at 3 days [4]: 1.09 µM
COc1cccc2c1C(=O)c1c(O)c3c(c(O)c1C2=O)C[C@@](O)(C(C)=O)C[C@@H]3O[C@H]1C[C@H](N)[C@H](O)[C@H](C)O1 [Daunorubicin, reference compound] | 6.05 µM |  |  | 57 µM | EC50 [2, 6]: 0.0312 µM
COc1cccc2c1C(=O)c1c(O)c3c(c(O)c1C2=O)C[C@@](O)(C(C)=O)C[C@@H]3O[C@H]1C[C@H](N)[C@@H](O)[C@H](C)O1 [Epidaunorubicin, reference compound] | 3.73 µM | 0.0312 µM |  |  | 
COc1cccc2c1C(=O)c1c(O)c3c(c(O)c1C2=O)C[C@@](O)(C(=O)CO)C[C@@H]3O[C@H]1C[C@H](N)[C@H](O)[C@H](C)O1 [Doxorubicin, reference compound] |  |  |  | 5 µM | EC50 [2, 6]: 0.0312 µM; EC50 ([2]; Huh-7 replicon cells, 4 days, luminescence reduced by 50%): 0.0429 µM; CC50 at 3 days [4]: 0.332 µM
COc1cccc2c1C(=O)c1c(O)c3c(c(O)c1C2=O)CC(O)(C(C)=O)CC3OC1CC(N=CN2CCCCCC2)C(O)C(C)O1.Cl (stereo not drawn) [Derivative 75] | 2.33 µM | 0.0084 µM | 0.0479 µM |  | activity (EC50) fold higher than that of epidoxorubicin, doxorubicin, epidaunorubicin, or daunorubicin ([2]; HCV replicon): 4 fold
NC(=O)c1ncn([C@@H]2O[C@H](CO)[C@@H](O)[C@H]2O)n1 [ribavirin, reference compound] |  |  |  |  | EC50 ([2]; Hepatitis C virus, Huh-7, ribavirin, comparison drug): 120 µM
COc1cccc2c1C(=O)c1c(O)c3c(c(O)c1C2=O)C[C@@](O)(C(=O)CO)C[C@@H]3O[C@H]1C[C@H](N)[C@@H](O)[C@H](C)O1 [Epidoxorubicin, reference compound] |  |  |  | 0.75 µM | CC50 at 3 days [4]: 0.675 µM
COC(=O)[C@@H]1c2cc3c(c(O)c2[C@@H](O[C@@H]2O[C@@H](C)[C@H](OC)[C@@](C)(OC)[C@H]2OC)C[C@]1(C)O)C(=O)c1c(O)cc2c(c1C3=O)O[C@@H]1O[C@@]2(C)[C@H](O)[C@@H](N(C)C)[C@@H]1O [nogalamycin] |  |  |  | 0.1 µM | 
